Earlier results on one compound are cited in patent publication JP2007126392A, “タンパク質のリフォールディング剤” (Sanyo Chemical Industries Ltd, priority 2005, dated 2007).

The conditions of the data set: first acid dissociation constant (pKa1) where several protons dissociate.

Turning to `O[Si](O)(O)O` [ケイ酸], the pKa was 9.86.

One may read the pKa as the pH at which an ionisable group is half protonated.
